For eleven compounds, IC50 results are on record in US6008372A, “Substituted dinaphthylmethyl and diheteroarylmethylacetyl histidine inhibitors of protein farnesyltransferase” (Warner-Lambert Company, priority 1998, dated 1999).

The target of the assay is T1, rat brain farnesyl protein transferase (Rattus norvegicus, UniProt Q02293+Q04631).
T1 construct: 40-fold purified rat brain farnesyl protein transferase; from tissue; host or cells: rat brain
The experiment in a line: Protein:farnesyltransferase (PFT/FPT) inhibitory activity assay. It is filed as biochemical.

Where [1] appears, read: Hepes (without 5 mM phosphate), read-out: Farnesyl Protein Transferase Inhibition, Hepes, IC50.
Where [2] appears, read: Hepes/5 mM PO4^-3, pH 7.4, read-out: Farnesyl Protein Transferase Inhibition, Hepes/5 mM PO4^-3, IC50.

pIC50: −log10 of the molar value. Read-outs that look alike come from different tables or passages of the source.

Turning to `O=C(N[C@@H](Cc1c[nH]cn1)C(=O)OCCN1CCOCC1)C(Cc1cccc2ccccc12)Cc1cccc2ccccc12` [Example 22, (S)-3-(1H-Imidazol-4-yl)-2-(3-naphthalen-1-yl-2-naphthalen-1-ylmethyl-propionylamino)-propionic acid, 2-morpholin-4-yl-ethyl ester], the pIC50 reads like this: under setting [1], 5.24; under setting [2], 5.37.

On to `O=C(N[C@@H](Cc1c[nH]cn1)C(=O)OCc1ccccc1)C(Cc1cccc2ccccc12)Cc1cccc2ccccc12` [Example 10, (S)-3-(1H-Imidazol-4-yl)-2-(3-naphthalen-1-yl-2-naphthalen-1-ylmethyl-propionylamino)-propionic acid, benzyl ester], for which the pIC50 is 5.38 under setting [1] and 5.54 under setting [2].

Turning to `O=C(N[C@@H](Cc1c[nH]cn1)C(=O)NCCO)C(Cc1cccc2ccccc12)Cc1cccc2ccccc12` [Example 29, (S)-N-[1-(2-Hydroxy-ethylcarbamoyl)-2-(1H-imidazol-4-yl)-ethyl]-3-naphthalen-1-yl-2-naphthalen-1-ylmethyl-propionamide], the pIC50 is 5.49 under setting [1] and 5.43 under setting [2].

Consider `CCCCc1nc(COC(=O)[C@H](Cc2c[nH]cn2)NC(=O)C(Cc2cccc3ccccc23)Cc2cccc3ccccc23)c[nH]1` [Example 13, (S)-3-(1H-Imidazol-4-yl)-2-(3-naphthalen-1-yl-2-naphthalen-1-ylmethyl-propionylamino)-propionic acid, 2-butyl-1H-imidazol-4-ylmethyl ester], for which the pIC50 is, setting by setting: under setting [1], 5.68; under setting [2], 5.77.

`O=C(N[C@@H](Cc1c[nH]cn1)C(=O)OC1CCCCC1)C(Cc1cccc2ccccc12)Cc1cccc2ccccc12` [Example 11, (S)-3-(1H-Imidazol-4-yl)-2-(3-naphthalen-1-yl-2-naphthalen-1-ylmethyl-propionylamino)-propionic acid, cyclohexyl ester]: the pIC50 was 4.70 under setting [1] and 4.85 under setting [2].

Regarding `COC(=O)[C@@H](Cc1c[nH]cn1)NC(=O)C(Cc1cccc2ccccc12)Cc1cccc2ccccc12` [Example 2, (R)-3-(1H-Imidazol-4-yl)-2-(3-naphthalen-1-yl-2-naphthalen-1-ylmethyl-propionylamino)-propionic acid, methyl ester], the pIC50 runs as follows: under setting [1], 4.92; under setting [2], 5.00.

`CC(C)=CCOC(=O)[C@H](Cc1c[nH]cn1)NC(=O)C(Cc1cccc2ccccc12)Cc1cccc2ccccc12` [Example 55, (S)-3-(1H-Imidazol-4-yl)-2-(3-naphthalen-1-yl-2-naphthalen-1-ylmethyl-propionylamino)-propionic acid 3-methyl-but-2-enyl ester]: the pIC50 is 5.28 under setting [1] and 5.37 under setting [2].

Take `O=C(N[C@@H](Cc1c[nH]cn1)C(=O)OCc1ccsc1)C(Cc1cccc2ccccc12)Cc1cccc2ccccc12` [Example 20, (S)-3-(1H-Imidazol-4-yl)-2-(3-naphthalen-1-yl-2-naphthalen-1-ylmethyl-propionylamino)-propionic acid, thiophen-3-ylmethyl ester]: the pIC50 is 5.46 under setting [1] and 5.62 under setting [2].

For `O=C(N[C@@H](Cc1c[nH]cn1)C(=O)OCCc1cccs1)C(Cc1cccc2ccccc12)Cc1cccc2ccccc12` [Example 19, (S)-3-(1H-Imidazol-4-yl)-2-(3-naphthalen-1-yl-2-naphthalen-1-ylmethyl-propionylamino)-propionic acid, 2-thiophen-2-yl-ethyl ester], the pIC50 is 5.96 under setting [1] and 5.96 under setting [2].

Regarding `O=C(N[C@@H](Cc1c[nH]cn1)C(=O)NCCCn1ccnc1)C(Cc1cccc2ccccc12)Cc1cccc2ccccc12` [Example 28], the pIC50 reads like this: under setting [1], 5.09; under setting [2], 5.38.

Take `CCSCCNC(=O)[C@H](Cc1c[nH]cn1)NC(=O)C(Cc1cccc2ccccc12)Cc1cccc2ccccc12` [Example 26, (S)-N-[1-(2-Ethylsulfanyl-ethylcarbamoyl)-2-(1H-imidazol-4-yl)-ethyl]-3-naphthalen-1-yl-2-naphthalen-1-ylmethyl-propionamide]: the pIC50 by setting is: under setting [1], 4.92; under setting [2], 5.06.
